Earlier results in patent publication US7456023B2, “Reagent for luminescence optical determination of an analyte” (Roche Diagnostics Operations, Inc., priority 2000, dated 2008).

Key:
[1] = for Absorption wavelength, deprotonated: deprotonated form; for Absorption wavelength, protonated: protonated form

Row | Compound | Absorption wavelength, deprotonated [1] | Absorption wavelength, protonated [1] | pKa
1 | O=S1(=O)OC(c2cc(Br)c(O)c(Br)c2)(c2cc(Br)c(O)c(Br)c2)c2ccccc21 [Bromophenol blue] | 617 nm | 430 nm | 
2 | Cc1c(C2(c3cc(C(C)C)c(O)c(Br)c3C)OS(=O)(=O)c3ccccc32)cc(C(C)C)c(O)c1Br [Bromothymol blue] | 615-618 nm | 430-435 nm | 
3 | Cc1ccc(O)c(N=Nc2c(O)cc(S(=O)(=O)O)c3ccccc23)c1 [Calmagit] | 605 nm | 530 nm | 
4 | O=C1OC(c2ccc(O)c3ccccc23)(c2ccc(O)c3ccccc23)c2ccccc21 [Naphthol-phthalein] | 661 nm | 428 nm | 
5 | O=C1C=CC(=Nc2ccc(O)cc2)C=C1Cl [o-chlorophenol-indophenol] | 625 nm | 555 nm | 
6 | Dibromoxylenol blue | 614 nm | 420 nm | 
7 | Nitrazine yellow | 590 nm | 460 nm | 6.5
